# Experiments:
# [1] = Hemolytic activity, spectrophotometric; type: cell-based, human; settings: human, human red blood cells (huRBC), 5% hematocrit, 200 μg/mL, 37 °C
# CCRF-CEM = assay: cells; settings: Homo sapiens, 48 h
# HL-60(TB) = assay: cells; settings: Homo sapiens, HL-60, 48 h
# K-562 = assay: cells; settings: Homo sapiens, K562, 48 h
# EKVX = assay: cells; settings: Homo sapiens, 48 h
# HOP-62 = assay: cells; settings: Homo sapiens, HOP-62, 48 h
# NCI-H322M = assay: cells; settings: Homo sapiens, 48 h
# NCI-H460 = assay: cells; settings: Homo sapiens, NCI-H460, 48 h
# COLO 205 = assay: cells; settings: Homo sapiens, COLO 205, 48 h
# HCC-2998 = assay: cells; settings: Homo sapiens, HCC 2998, 48 h
# HCT-15 = assay: cells; settings: Homo sapiens, HCT-15, 48 h
# HT29 = assay: cells; settings: Homo sapiens, HT-29, 48 h
# KM12 = assay: cells; settings: Homo sapiens, KM12, 48 h
# SF-268 = assay: cells; settings: Homo sapiens, SF-268, 48 h
# SF-295 = assay: cells; settings: Homo sapiens, SF-295, 48 h
# SF-539 = assay: cells; settings: Homo sapiens, SF-539, 48 h
# SNB-75 = assay: cells; settings: Homo sapiens, SNB-75, 48 h
# MALME-3M = assay: cells; settings: Homo sapiens, 48 h
# M14 = assay: cells; settings: Homo sapiens, M14, 48 h
# SK-MEL-28 = assay: cells; settings: Homo sapiens, SK-MEL-28, 48 h
# SK-MEL-5 = assay: cells; settings: Homo sapiens, SK-MEL-5, 48 h
# UACC-257 = assay: cells; settings: Homo sapiens, UACC-257, 48 h
# UACC-62 = assay: cells; settings: Homo sapiens, UACC-62, 48 h
# OVCAR-3 = assay: cells; settings: Homo sapiens, OVCAR-3, 48 h
# OVCAR-4 = assay: cells; settings: Homo sapiens, OVCAR-4, 48 h
# OVCAR-5 = assay: cells; settings: Homo sapiens, OVCAR-5, 48 h
# OVCAR-8 = assay: cells; settings: Homo sapiens, OVCAR-8, 48 h
# SK-OV-3 = assay: cells; settings: Homo sapiens, SK-OV-3, 48 h
# 786-0 = assay: cells; settings: Homo sapiens, 786-0, 48 h
# A498 = assay: cells; settings: Homo sapiens, A498, 48 h
# CAKI-1 = assay: cells; settings: Homo sapiens, CAKI-1, 48 h
# RXF 393 = assay: cells; settings: Homo sapiens, RXF 393, 48 h
# SN12C = assay: cells; settings: Homo sapiens, 48 h
# TK-10 = assay: cells; settings: Homo sapiens, TK-10, 48 h
# UO-31 = assay: cells; settings: Homo sapiens, UO-31, 48 h
# MCF7 = assay: cells; settings: Homo sapiens, MCF7, 48 h
# HS 578T = assay: cells; settings: Homo sapiens, 48 h
# MDA-MB-468 = assay: cells; settings: Homo sapiens, MDA-MB-468, 48 h
smiles,measurement,setting,value
Nc1nc(N)c2c(n1)NC(c1ccc(F)cc1)CC(c1ccc(Nc3nc(NCCO)nc(Nc4ccc(Cl)cc4)n3)cc1)=N2 (stereo not shown) [33f],"hemolysis at 24 h, 200 µg/mL",[1],5%
same,GI50,CCRF-CEM,0.754 µM
same,CC50,CCRF-CEM; read-out: LC50,> 100 µM
same,GI50,HL-60(TB),0.863 µM
same,CC50,HL-60(TB); read-out: LC50,> 100 µM
same,GI50,"K-562; K-562, 48 h",0.489 µM
same,CC50,K-562; read-out: LC50,> 100 µM
same,GI50,EKVX,1.66 µM
same,CC50,EKVX; read-out: LC50,24 µM
same,GI50,HOP-62,1.77 µM
same,CC50,HOP-62; read-out: LC50,11.7 µM
same,GI50,NCI-H322M,2.43 µM
same,CC50,NCI-H322M; read-out: LC50,33.5 µM
same,GI50,NCI-H460,1.71 µM
same,CC50,NCI-H460; read-out: LC50,7.73 µM
same,GI50,COLO 205,1.49 µM
same,CC50,COLO 205; read-out: LC50,5.8 µM
same,GI50,HCC-2998,1.61 µM
same,CC50,HCC-2998; read-out: LC50,5.78 µM
same,GI50,HCT-15,1.03 µM
same,CC50,HCT-15; read-out: LC50,7.87 µM
same,GI50,HT29,1.42 µM
same,CC50,HT29; read-out: LC50,7.01 µM
same,GI50,KM12,1.68 µM
same,CC50,KM12; read-out: LC50,8.22 µM
same,GI50,SF-268,2.85 µM
same,CC50,SF-268; read-out: LC50,76 µM
same,GI50,SF-295,1.96 µM
same,CC50,SF-295; read-out: LC50,7.15 µM
same,GI50,SF-539,1.56 µM
same,CC50,"SF-539; read-out: LC50, SF-539, 48 h",6.36 µM
same,GI50,SNB-75,3.35 µM
same,CC50,SNB-75; read-out: LC50,45.4 µM
same,GI50,MALME-3M,1.66 µM
same,GI50,M14,1.66 µM
same,CC50,M14; read-out: LC50,6.58 µM
same,GI50,SK-MEL-28,1.7 µM
same,CC50,SK-MEL-28; read-out: LC50,5.93 µM
same,GI50,SK-MEL-5,1.46 µM
same,CC50,SK-MEL-5; read-out: LC50,5.3 µM
same,GI50,UACC-257,1.85 µM
same,CC50,UACC-257; read-out: LC50,6.69 µM
same,GI50,UACC-62,1.96 µM
same,GI50,OVCAR-3,1.58 µM
same,CC50,OVCAR-3; read-out: LC50,6.82 µM
same,GI50,OVCAR-4,1.93 µM
same,CC50,OVCAR-4; read-out: LC50,> 100 µM
same,GI50,OVCAR-5,5.1 µM
same,CC50,OVCAR-5; read-out: LC50,> 100 µM
same,GI50,OVCAR-8,1.16 µM
same,CC50,OVCAR-8; read-out: LC50,6.81 µM
same,GI50,SK-OV-3,12.9 µM
same,CC50,SK-OV-3; read-out: LC50,50.5 µM
same,GI50,786-0,1.36 µM
same,CC50,786-0; read-out: LC50,7.12 µM
same,GI50,A498,3.72 µM
same,CC50,A498; read-out: LC50,39.1 µM
same,GI50,CAKI-1,6.14 µM
same,CC50,CAKI-1; read-out: LC50,> 100 µM
same,GI50,RXF 393,1.17 µM
same,CC50,RXF 393; read-out: LC50,5.9 µM
same,GI50,SN12C,2.08 µM
same,CC50,SN12C; read-out: LC50,> 100 µM
same,GI50,TK-10,4.61 µM
same,CC50,TK-10; read-out: LC50,45.5 µM
same,GI50,UO-31,3.07 µM
same,CC50,UO-31; read-out: LC50,> 100 µM
same,GI50,MCF7,0.956 µM
same,CC50,MCF7; read-out: LC50,6 µM
same,GI50,HS 578T,2.04 µM
same,CC50,HS 578T; read-out: LC50,> 100 µM
same,GI50,MDA-MB-468,1.48 µM
same,CC50,MDA-MB-468; read-out: LC50,6.7 µM
